Assays:
Assay in all cases: relative viability (nuclei count vs DMSO), 5 days (fraction); higher = more cells survive
[1] = compound: N#CC1(c2ccc(NC(=O)c3cccnc3NCc3ccncc3)cc2)CCCC1 [Apatinib] + Nc1ncn([C@H]2C[C@H](O)[C@@H](CO)O2)c(=O)n1 [Decitabine] (partner 2 µM)
Method in brief: (§1)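 Five library-drug doses in √10 steps were combined with a fixed anchor-drug dose, or a single drug was given alone, by pin tool to lung cancer cell lines in 1536-well plates the day after seeding. Nuclei were stained and counted after 5 days. Relative viability is the nuclei count in treated wells over that in vehicle wells, taken as the median of duplicate plates.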

[2] = compound: N#CC1(c2ccc(NC(=O)c3cccnc3NCc3ccncc3)cc2)CCCC1 [Apatinib] + O=C(CCCCCCC(=O)Nc1ccccc1)NO [Vorinostat] (partner 1 µM)
Method in brief: as §1

[3] = compound: N#CC1(c2ccc(NC(=O)c3cccnc3NCc3ccncc3)cc2)CCCC1 [Apatinib] + COc1cccc2cc(-c3nc([C@H]4CC[C@H](C(=O)O)CC4)n4ncnc(N)c34)[nH]c12 [OSI-027] (partner 0.5 µM)
Method in brief: as §1

[4] = compound: N#CC1(c2ccc(NC(=O)c3cccnc3NCc3ccncc3)cc2)CCCC1 [Apatinib] + CC(=O)Nc1cccc(-n2c(=O)n(C3CC3)c(=O)c3c(Nc4ccc(I)cc4F)n(C)c(=O)c(C)c32)c1 [Trametinib] (partner 0.02 µM)
Method in brief: as §1

NCI-H460
relative viability ([1]; first compound 0.08 µM): 0.497 | relative viability ([1]; first compound 0.253 µM): 0.457 | relative viability ([1]; first compound 0.8 µM): 0.43 | relative viability ([1]; first compound 2.53 µM): 0.447 | relative viability ([1]; first compound 8 µM): 0.477 | relative viability ([2]; first compound 0.08 µM): 0.741 | relative viability ([2]; first compound 0.253 µM): 0.73 | relative viability ([2]; first compound 0.8 µM): 0.623 | relative viability ([2]; first compound 2.53 µM): 0.577 | relative viability ([2]; first compound 8 µM): 0.417 | relative viability ([3]; first compound 0.08 µM): 0.799 | relative viability ([3]; first compound 0.253 µM): 0.746 | relative viability ([3]; first compound 0.8 µM): 0.491 | relative viability ([3]; first compound 2.53 µM): 0.541 | relative viability ([3]; first compound 8 µM): 0.333 | relative viability ([4]; first compound 0.08 µM): 0.119 | relative viability ([4]; first compound 0.253 µM): 0.172 | relative viability ([4]; first compound 0.8 µM): 0.223 | relative viability ([4]; first compound 2.53 µM): 0.134 | relative viability ([4]; first compound 8 µM): 0.128

— the supplement of paper PMC10307832
